Results published in patent US20060241097A1, “Pesticidal substituted 1,2,5-thiadiazole derivatives” (FMC CORPORATION, priority 2003, published 2006).
Structures can show the parent of a compound that is named as a salt. Where two headings read alike, the source gives them in different places.

Tests used:
[1] = tested on: cotton aphid (Aphis gossypii); test: Foliar test against cotton aphid on cotton seedlings; assay type: in vivo
Experimental: Candidate pesticides, i.e., insecticides of the present invention were evaluated on 7-10 day old cotton seedlings infested with cotton aphid (Aphis gossypii). At least 12 hours prior to the test, leaf cuttings containing about 50 adult aphids were placed on leaves of each of duplicate cotton seedlings for each rate of application of candidate insecticide. Solutions of the candidate insecticide were prepared for testing by serial dilution of a standard solution comprised of an appropriate amount of insecticide in a water/acetone solvent, which contained a small amount of a surfactant. Rates of application of candidate insecticide may range from about 1000 ppm, or more, to about 3 ppm, or less, in a rate series of, for example, 1000 ppm, 100 ppm, 30 ppm, 10 ppm, and 3 ppm. The solutions containing each rate of application of candidate insecticide were then sprayed to run-off to both the upper and lower portions of the leaves of the aphid-infested cotton seedlings. Each test of foliar-applied candidate insecticide included appropriate standard insecticide of known insecticidal activity and blank treatments to aid in assessing the insecticidal activity of the candidate insecticide. Upon completion of the spraying with candidate insecticide, the cotton seedlings were maintained in a growth chamber for a period of 72 hours. After this time, the seedlings were examined for dead insects. Insects were classified as dead if they were off-color or brown and desiccated. Upon completion of the evaluation of the test, the percent mortality of the cotton aphid for each rate of application of the candidate insecticide was determined by comparison of the total number of dead insects to the total number of insects in the test.

[2] = tested on: two-spotted spider mite (Tetranychus urticae); test: Foliar test against two-spotted spider mite on pinto bean seedlings; assay type: in vivo; details: foliar spray, 72 hours
Experimental: Candidate pesticides, i.e., acaricides of the present invention were evaluated on 7-8 day old pinto bean seedlings infested with two-spotted spider mite (Tetranychus urticae) in comparison with the corresponding 1,2,4-thiadiazole derivatives. The test was conducted using the test method set forth below:
One to two hours prior to the test, leaf cuttings containing about 50-75 adult mites were placed on leaves of each of duplicate pinto bean seedlings for each rate of application of candidate acaricide. Solutions of the candidate acaricide were prepared for testing by serial dilution of a standard solution comprised of an appropriate amount of acaricide in a water/acetone solvent, which contained a small amount of a surfactant. Rates of application of candidate acaricide may range from about 1000 ppm, or more, to about 1 ppm, or less, in a rate series of, for example, 1000 ppm, 300 ppm, 100 ppm, 30 ppm, 10 ppm, 3 ppm, and 1 ppm. The solutions containing each rate of application of candidate acaricide were then sprayed to run-off to both the upper and lower portions of the leaves of the mite-infested pinto bean seedlings. Each test of foliar-applied candidate acaricide included appropriate standard acaricide of known acaricidal activity and blank treatments to aid in assessing the acaricidal activity of the candidate acaricide. Upon completion of the spraying with candidate acaricide, the pinto bean seedlings were maintained in a growth chamber for a period of 72 hours. After this time, the seedlings were examined for dead acarids. […] Upon completion of the evaluation of the test, the percent control of the two-spotted spider mite for each rate of application of the candidate acaricide was determined by comparison of the total number of dead and motibund acarids to the total number of acarids in the test.

[3] = cotton aphid, foliar spray, 300 ppm, 72 hours
[4] = cotton aphid, foliar spray, 1000 ppm, 72 hours
[5] = Aphis gossypii, cotton aphid, foliar spray, 300 ppm, 72 hours, read-out: Percent Mortality
[6] = Aphis gossypii, cotton aphid, foliar spray, 1000 ppm, 72 hours, read-out: Percent Mortality
[7] = Aphis gossypii, foliar, 72 h, read-out: Percent Mortality

Compound `Clc1nsnc1C1(Cl)CN2CCC1CC2` (centres unmarked) has a melting point of 93 to 95 °C.
For `CCOc1nsnc1C1CN2CCC1CC2` (centres unmarked) [Compound 108], the “Percent Mortality” value [1, 3] was 3% and the “Percent Mortality” value [1, 4] was 17%.
With `CCCOc1nsnc1C1CN2CCC1CC2` (centres unmarked) [Compound 109] the “Percent Control” value ([2]; 300 ppm) was 15% and the “Percent Control” value ([2]; 1000 ppm) was 65%.
With `Cc1nsc(C2=CCCN(C)C2)n1` [B, reference compound] the “Percent Control” value ([2]; 300 ppm) was “completely inactive”.
With `CN1CCC=C(c2ncns2)C1` [A, reference compound] the “Percent Control” value ([2]; 300 ppm) was “completely inactive”.
In the case of `CC#CCOc1nsnc1C1=CCCN(C)C1` [Compound 67], the “Percent Control” value ([2]; 300 ppm) is reported as 100% and the “Percent Control” value ([2]; 1000 ppm) is reported as 100%.
For `C#CCOc1nsnc1C1=CCCN(C)C1` [Compound 66], the “Percent Control” value ([2]; 100 ppm) was 52%, the “Percent Control” value ([2]; 300 ppm) was 83% and the “Percent Control” value ([2]; 1000 ppm) was 98%.
Work on `Clc1nsnc1C1=CCCN(Cc2ccccc2)C1` [Compound 2, 3-chloro-4-[1-benzyl(1,2,5,6-tetrahydropyrid-3-yl)]-1,2,5-thiadiazole] yielded a mortality at 1000 ppm ([1]; Aphis gossypii, cotton aphid, foliar spray, 1000 ppm, 72 hours, read-out: Percent Mortality (LP class)) of over 0%.
With `CCOC(=O)N1CCC=C(c2nsnc2Cl)C1` [Compound 3] the “Percent Mortality (LP class)” value [1, 4] was “LP (LP means that some activity was observed because the population of the cotton aphids was lowered but a value was not calculated.)”.
With `CCCCOc1nsnc1C1=CCCN(C)C1` [Compound 60] the “Percent Mortality (LP class)” value [1, 4] was “LP (LP means that some activity was observed because the population of the cotton aphids was lowered but a value was not calculated.)”, the “Percent Control” value ([2]; 300 ppm) was 10% and the “Percent Control” value ([2]; 1000 ppm) was 41%.
For `Clc1nsnc1C1=CC=CN(Cc2ccccc2)C1` (as salt: salt) [Compound 162, 3-chloro-4-(1-benzylpyrid-3-yl)-1,2,5-thiadiazole], the melting point was 47 to 49 °C.
With `CCCSc1nsnc1C1=CCCN(C)C1` [Compound 71] the “Percent Control” value ([2]; 300 ppm) was 20%.
`CN1CCC=C(c2cnsn2)C1` [Compound 4, 3-[1-methyl(1,2,5,6-tetrahydropyrid-3-yl)]-1,2,5-thiadiazole] showed a mortality at 100 ppm ([1]; Aphis gossypii, cotton aphid, foliar spray, 100 ppm, 72 hours, read-out: Percent Mortality) of 24%, a mortality at 300 ppm [1, 5] of 73% and a mortality at 1000 ppm [1, 6] of 86%. For the same compound, the “Percent Control” value ([2]; 10 ppm) was 49%, the “Percent Control” value ([2]; 30 ppm) was 96% and the “Percent Control” value ([2]; 100 ppm) was 100%. The “Percent Control” value ([2]; 300 ppm) was 100% and the “Percent Control” value ([2]; 1000 ppm) was 100%.
With `Clc1nsnc1C1CN2CCC1CC2` (centres unmarked) [Compound 102, 3-chloro-4-quinuclidin-3-yl-1,2,5-thiadiazole] the mortality at 300 ppm [1, 7] was 8%, the mortality at 1000 ppm [1, 7] was 33% and the “Percent Control” value ([2]; 100 ppm) was 13%. The “Percent Control” value ([2]; 300 ppm) was 27%.
In the case of `CCCCCCSc1nsnc1C1=CCCN(C)C1` [Compound 75], the “Percent Mortality” value [1, 4] is reported as 25%.
For `CCCCCSc1nsnc1C1=CCCN(C)C1` [Compound 73], the “Percent Mortality (LP class)” value [1, 4] was “LP (LP means that some activity was observed because the population of the cotton aphids was lowered but a value was not calculated.)”.
With `C=CCSc1nsnc1C1=CCCN(C)C1` [Compound 77] the “Percent Control” value ([2]; 300 ppm) was 13%.
Compound `Cc1nsnc1-c1cccnc1` [Compound 132, 3-methyl-4-pyrid-3-yl-1,2,5-thiadiazole] has a mortality at 300 ppm [1, 5] of 35% and a mortality at 1000 ppm [1, 6] of 82%.
In the case of `COc1nsnc1C1CN2CCC1CC2` (centres unmarked) [Compound 107], the “Percent Mortality” value [1, 3] is reported as 12% and the “Percent Mortality” value [1, 4] is reported as 24%.
With `CN1CCC=C(c2nsnc2F)C1` [Compound 23, 3-fluoro-4-(1-methyl-1,2,5,6-tetrahydropyrid-3-yl)-1,2,5-thiadiazole] the mortality at 1000 ppm ([1]; Aphis gossypii, cotton aphid, foliar spray, 1000 ppm, 72 hours, average of two tests, read-out: Percent Mortality) was 11%, the “Percent Control” value ([2]; 10 ppm) was 35% and the “Percent Control” value ([2]; 30 ppm) was 95%. The “Percent Control” value ([2]; 100 ppm) was 98% and the “Percent Control” value ([2]; 300 ppm) was 100%.
With `CCCCOc1nsnc1C1CN2CCC1CC2` (centres unmarked) [Compound 110, 3-butoxy-4-quinuclidin-3-yl-1,2,5-thiadiazole] the mortality at 1000 ppm ([1]; Aphis gossypii, foliar, 72 h, read-out: Percent Mortality (LP class)) was over 0% and the “Percent Control” value ([2]; 300 ppm) was 34%.
In the case of `CCCOc1nsnc1C1=CC=CNC1` [Compound 140], the “Percent Mortality (LP class)” value [1, 4] is reported as “LP (LP means that some activity was observed because the population of the cotton aphids was lowered but a value was not calculated.)”.
In the case of `CCCCSc1nsnc1C1=CCCN(C)C1` [Compound 72], the “Percent Control” value ([2]; 300 ppm) is reported as 4% and the “Percent Control” value ([2]; 1000 ppm) is reported as 34%.
For `CN1CCC=C(c2nsnc2Oc2ccc(F)cc2)C1` [Compound 63], the “Percent Mortality” value ([1]; cotton aphid, foliar spray, 1000 ppm, 72 hours, average of two tests) was 48%.
For `C#CCCOc1nsnc1C1=CCCN(C)C1` [Compound 68], the “Percent Mortality (LP class)” value [1, 4] was “LP (LP means that some activity was observed because the population of the cotton aphids was lowered but a value was not calculated.)”.
